From patent publication US20250186456A1, “PYRIMIDINE-FUSED CYCLIC COMPOUND AND PREPARATION METHOD AND USE THEREOF” (Genfleet Therapeutics (Shanghai) Inc., priority 2021, published 2025)
Where two headings read alike, the source gives them in different places.

Tests used:
Assay type in all cases: cell-based, human
[1] = tested on: p-ERK in AGS cells (KRAS G12D mutation); test: Cell p-ERK assay (HTRF, Advance ERK phospho-T202/Y204 kit); details: AGS cells, 3 hours incubation with compound, HTRF, read-out: AGS p-ERK IC50
Protocol: AGS was purchased from ATCC; catalog No: CRL-1739; F12K was purchased from Gibco; catalog No: 21127-022; FBS was purchased from Gibco; catalog No: 10099-141C; trypsin (containing EDTA) was purchased from Gibco, catalog No: 25200-072; DMSO was purchased from VWRAMRESCO; catalog No: 0231-500 ML; 96-well cell culture plates were purchased from Corning; catalog No: 3599; white opaque 96-well plates were purchased from Cisbio; catalog No: 66PL96025; Advance ERK phospho-T202/Y204 kit was purchased from Cisbio; catalog No: 64AERPEH; cell counters were purchased from CHEMOMETEC; model No: NC-200; microplate reader was purchased from PerkinElmer; model No: Envison.
AGS is an endogenous human gastric adenocarcinoma cell line containing the KRAS^G12D mutation, cultured in F12K+10% FBS medium. On the first day of the experiment, cells in the logarithmic growth phase were taken, digested with trypsin (containing EDTA), collected, and counted. Approximately 20000 cells/well were seeded in a 96-well cell culture plate and cultured overnight in an incubator with 5% CO2. 1000X stock solutions of compounds at a 3.16-fold concentration gradient were prepared using DMSO, and diluted 200-fold into a 5X compound stock solution using the medium described above. The 5X compound stock solution was added to each cell culturing well the day after cell seeding at a final concentration of 1X and a DMSO content of 0.1%. DMSO was used as a control in the experiment. After the compound was added and the incubation was kept for 3 hours, the medium in the culture wells was removed. 50 μl of Cell lysis solution (from Advance ERK phospho-T202/Y204 kit, the same below) was added to each well, mixed well, and incubated for 30 minutes and then 16 μl of the mixed solution was transferred to a white opaque 96-well plate, another 16 μl of cell lysis solution was added to a well as a blank well. After transferring, 4 μl of p-ERK HTRF antibody mixture (from Advance ERK phospho-T202/Y204 kit) was added to each well. After incubation for 4 hours, HTRF fluorescence value (RLU) was read by a microplate reader, and p-ERK level inhibition rate (IR (%)=(RLU control-RLU compound)/(RLU control-RLU blank)×100%) of the compounds was calculated. The concentration of the compounds and corresponding cell p-ERK level inhibition rate were fitted using Prism 8 four-parameters method, and the IC50 value was calculated.

AGS cells (KRAS G12D) = test: Cell proliferation inhibition assay, 3D, CellTiter-Glo 3D, AGS; details: AGS 3D sphere model, 5 days incubation
Description: (§1) AsPC-1 was purchased from ATCC; catalog No: CRL-1682; AGS was purchased from ATCC; catalog No: CRL-1739; RPMI1640 was purchased from Gibco; catalog No: 11875-093 2235123; F12K was purchased from Gibco; catalog No: 21127-022; FBS was purchased from Gibco; catalog No: 10099-141C; trypsin (containing EDTA) was purchased from Gibco; catalog No: 25200-072; CellTiter Glo-3D was purchased from Progema; catalog No: G9683; 384-well sphere plates were purchased from Corning; catalog No: 3830; white opaque 384-well plates were purchased from Corning; catalog No: 3570; cell counters were purchased from CHEMOMETEC; model: NC-200; microplate reader was purchased from PerkinElmer; model: Envison;
(§2) AsPC-1 is an endogenous human pancreatic cancer cell containing KRAS^G12D mutation, cultured in RPMI-1640 medium containing 10% FBS; AGS is a human gastric cancer cell line containing KRAS^G12D, cultured in F-12K medium containing 10% FBS. Cells in the logarithmic growth phase were taken, digested with trypsin (containing EDTA), collected, and counted. 800 AsPC-1 cells/well or 400 AGS cells/well, respectively, were seeded in a 384-well sphere plate and cultured overnight at 5% CO2 to establish a 3D cell model. 1000X stock solutions of compounds at a 3.16-fold concentration gradient of were prepared using DMSO, diluted 100-fold into a 10X compound stock solution using the medium described above. The 10X compound stock solution was added to each cell on 2nd day after cell seeding at a final concentration of 1X and a DMSO content of 0.1%. DMSO was used as a control in the experiment, and the medium was used as blank. After the addition of the compounds, the cells were incubated for 5 days. 30 μl of CellTiter-Glo work solution was added to each well, mixed well, and incubated for 30 minutes. After standing at room temperature for 30 minutes, 40 μl of the mixed solution was transferred to an opaque 384-well plate with a white clear bottom. Luminescence chemiluminescence value was read by a microplate reader, and the cell proliferation inhibition rate (IR (%)=(RLU control-RLU compound)/(RLU control-RLU blank)×100%) was calculated. The gradiently diluted concentration of the compounds and corresponding cell proliferation inhibition rate were fitted using XLFit four-parameters method, and the IC50 value was calculated. […] The results of some exemplary compounds are shown in Table 2 (“−” represents untested).

[2] = tested on: AsPC-1 cells (KRAS G12D mutation); test: Cell proliferation inhibition assay, 3D, CellTiter-Glo 3D, AsPC-1; details: AsPC-1 3D sphere model, 5 days incubation
Description: as §1, §2

IC50 [1] [nM]	IC50 (AGS cells (KRAS G12D)) [nM]	IC50 [2] [nM]	Compound	IC50 ([1]; Homo sapiens) [nM]	IC50 (AGS cells (KRAS G12D); Homo sapiens, 120 h) [nM]	IC50 ([2]; Homo sapiens, ASPC1, 120 h) [nM]
			C#Cc1c(F)ccc2cccc(-c3nc4c5c(nc(OC[C@@]67CCCN6C[C@@H]6C[C@@H]67)nc5c3F)N3C[C@H]5CC[C@H](N5)[C@H]3[C@H](C)O4)c12 (single isomer, unassigned) [Example Z626-2]	20.6	28.2	56.6
			C#Cc1c(F)ccc2cccc(-c3nc4c5c(nc(OC[C@@]67CCCN6C[C@H]6C[C@H]67)nc5c3F)N3C[C@H]5CC[C@H](N5)[C@H]3[C@H](C)O4)c12 (single isomer, unassigned) [Example Z627-2]	59.3	83.4	287
			C#Cc1c(F)ccc2cccc(-c3nc4c5c(nc(OC[C@]67CCCN6CC(=C)C7)nc5c3F)N3C[C@H]5CC[C@H](N5)[C@H]3[C@H](C)O4)c12 (single isomer, unassigned) [Example Z636]	10.5	10.9	30.6
			C#Cc1c(F)ccc2cccc(-c3nc4c5c(nc(OC[C@]67CCCN6CCC7=C)nc5c3F)N3C[C@H]5CC[C@H](N5)[C@H]3[C@H](C)O4)c12 (single isomer, unassigned) [Example Z638]	7.79	19.7	32
			C#Cc1c(F)ccc2cccc(-c3nc4c5c(nc(OC[C@]67C[C@@H](F)CN6CCC7=C)nc5c3F)N3C[C@H]5CC[C@H](N5)[C@H]3[C@H](C)O4)c12 (single isomer, unassigned) [Example Z689]	6.61	19.3	17.4
			C#Cc1c(F)ccc2cccc(-c3nc4c5c(nc(OC[C@@]67C[C@@H](F)CN6CCC7=C)nc5c3F)N3C[C@H]5CC[C@H](N5)[C@H]3[C@H](C)O4)c12 (single isomer, unassigned) [Example Z690]	16.7	31.5	45.9
4.71	36.1	77.7	C#Cc1c(F)ccc2cccc(-c3nc4c5c(nc(OC[C@]67CC(=C)CN6CC[C@@H]7OC)nc5c3F)N3C[C@H]5CC[C@H](N5)[C@H]3[C@H](C)O4)c12 (single isomer, unassigned) [Example Z695]			
72.6	598	694	C#Cc1c(F)ccc2cccc(-c3nc4c5c(nc(OC[C@@]67CC(=C)CN6CC[C@@H]7OC)nc5c3F)N3C[C@H]5CC[C@H](N5)[C@H]3[C@H](C)O4)c12 (single isomer, unassigned) [Example Z696]			
			C#Cc1cccc2cc(N)cc(-c3nc4c5c(nc(OC[C@@]67CCCN6CC(F)(F)C7)nc5c3F)N3C[C@H]5CC[C@H](N5)[C@H]3[C@H](C)O4)c12 (single isomer, unassigned) [Example Z735]	5.62	35.2	18.1
			CCc1cccc2cc(O)cc(-c3nc4c5c(nc(OC[C@@]67CCCN6C[C@H](F)C7)nc5c3F)N3C[C@H]5CC[C@H](N5)[C@H]3CO4)c12 [Example Z140-1, 5-Ethyl-4-((5aS,6S,9R)-1-Fluoro-12-(((2R,7aS)-2-Fluorotetrahydro-1H-Pyrrolizin-7a (5H)-Yl)Methoxy)-5a,6,7,8,9,10-Hexahydro-5H-4-Oxa-3,10a,11,13,14-Pentaaza-6,9-Methanonaphtho[1,8-Ab]Heptalen-2-Yl) Naphthalen-2-Ol]	2.85	4	21.1
			C#Cc1cccc2cccc(-c3nc4c5c(nc(OC[C@@]67CCCN6C[C@H](F)C7)nc5c3F)N3C[C@H]5CC[C@H](N5)[C@H]3[C@H](C)O4)c12 [Example Z360-1, (5S,5aS,6S,9R)-2-(8-ethynylnaphthalen-1-yl)-1-fluoro-12-(((2R,7aS)-2-fluorotetrahydro-1H-pyrrolizin-7a (5H)-yl)methoxy)-5-methyl-5a,6,7,8,9,10-hexahydro-5H-4-oxa-3,10a, 11,13,14-pentaaza-6,9-methanonaphtho[1,8-ab]heptalene]	29.9	27.8	36.4
			C=C1CN2CCCC2(COc2nc3c4c(nc(-c5cccc6cccc(Cl)c56)c(F)c4n2)O[C@@H](CC)[C@@H]2[C@@H]4CC[C@H](CN32)N4)C1 (stereo partly drawn) [Example Z596, (5S,5aS,6S,9R)-2-(8-chloronaphthalen-1-yl)-5-ethyl-1-fluoro-12-((2-methylenetetrahydro-1H-pyrrolizin-7a (5H)-yl)methoxy)-5a,6,7,8,9,10-hexahydro-5H-4-oxa-3,10a,11,13,14-pentaaza-6,9-methanonaphtho[1,8-ab]heptalene]		268	411
			C#Cc1c(F)ccc2cccc(-c3nc4c5c(nc(OCC67CC(=C)CN6C[C@@H](F)C7)nc5c3F)N3C[C@H]5CC[C@H](N5)[C@H]3[C@H](C)O4)c12 (stereo partly drawn) [Example Z634, (5S,5aS,6S,9R)-2-(8-ethynyl-7-fluoronaphthalen-1-yl)-1-fluoro-12-(((2S)-2-fluoro-6-methylenetetrahydro-1H-pyrrolizin-7a (5H)-yl)methoxy)-5-methyl-5a,6,7,8,9,10-hexahydro-5H-4-oxa-3,10a,11,13,14-pentaaza-6,9-methanonaphtho[1,8-ab]heptalene]			883
			C#Cc1c(F)ccc2cccc(-c3nc4c5c(nc(OCC67C[C@H](OC)CN6CCC7=C)nc5c3F)N3C[C@H]5CC[C@H](N5)[C@H]3[C@H](C)O4)c12 (stereo partly drawn) [Example Z694, (5S,5aS,6S,9R)-2-(8-ethynyl-7-fluoronaphthalen-1-yl)-1-fluoro-12-(((6S)-6-methoxy-1-methylenetetrahydro-1H-pyrrolizin-7a (5H)-yl)methoxy)-5-methyl-5a,6,7,8,9,10-hexahydro-5H-4-oxa-3,10a, 11,13,14-pentaaza-6,9-methanonaphtho[1,8-ab]heptalene]		397	405
			C#Cc1c(F)ccc2cccc(-c3nc4c5c(nc(OCC67CC(=C)CN6CC[C@H]7OC)nc5c3F)N3C[C@H]5CC[C@H](N5)[C@H]3[C@H](C)O4)c12 (stereo partly drawn) [Example Z704, (58,5aS,6S,9R)-2-(8-ethynyl-7-fluoronaphthalen-1-yl)-1-fluoro-12-(((1R)-1-methoxy-6-methylenetetrahydro-1H-pyrrolizin-7a (5H)-yl)methoxy)-5-methyl-5a,6,7,8,9,10-hexahydro-5H-4-oxa-3,10a, 11, 13,14-pentaaza-6,9-methanonaphtho[1,8-ab]heptalene]	542		688

Compound	IC50 [1] [nM]	IC50 (AGS cells (KRAS G12D)) [nM]	IC50 [2] [nM]	IC50 ([1]; Homo sapiens) [nM]	IC50 (AGS cells (KRAS G12D); Homo sapiens, 120 h) [nM]	IC50 ([2]; Homo sapiens, ASPC1, 120 h) [nM]
5-ethynyl-3-fluoro-4-((58,5aS,6S,9R)-1-fluoro-S-methyl-12-((1-(morpholinomethyl)cyclopropyl)methoxy)-5a,6,7,8,9,10-hexahydro-5H-4-oxa-3,10a, 11, 13,14-pentaaza-6,9-methanonaphtho[1,8-ab]heptalene-2-yl) naphthalen-2-amine [Example Z707]	0.95	7.44	5.24			
